{
  "source": "patent US20160175316A1",
  "about": "“METHOD OF PREVENTING OR TREATING ORGAN, HEMATOPOIETIC STEM CELL OR BONE MARROW TRANSPLANT REJECTION” (AbbVie Inc., priority 2006, published 2016)",
  "key": {"activated T cells": {"system": "activated T cells", "assay": "Mouse mixed lymphocyte model, 3H-Thymidine incorporation", "type": "cell-based", "details": "Balb/c and C57BL/6 splenocytes co-cultured for 2 days, 6 hour pulse with 3H-Thy", "protocol": "Inhibition of ^3H-Thymidine incorporation by EXAMPLE A. 5×10^5 Balb/c and C57BL/6 splenocytes were co-cultured for 2 days with EXAMPLE A, its enantiomer or vehicle control before a 6 hour pulse with ^3H-Thy."}, "activated murine B cells": {"system": "activated murine B cells", "assay": "LPS-stimulated B cell proliferation, 3H-Thy pulse", "type": "cell-based, mouse", "details": "B6 B cells, in vitro stimulation with low doses of LPS, 6 hour pulse", "protocol": "Untouched B cells from B6 mouse splenocytes were isolated by MACS separation. 2×10^5B cells were cultured with EXAMPLE A, its enantiomer or vehicle control and […] of lipopolysaccharide (LPS) before a 6 hour pulse with ^3H-Thy. Control vs EXAMPLE A (P<0.05 1-way ANOVA using Dunnett's post-hoc). One representative experiment (n=2) is shown."}, "naïve and memory T cells": {"system": "naïve and memory T cells", "assay": "In vivo depletion of naïve and memory T cells in spleen and lymph nodes (flow cytometry)", "parameters": "species or system C57BL/6 mice", "protocol": "To determine if T cell sensitivity to ABT-737 treatment was predicated on the maturation or differentiation state of a T cell, C57BL/6 mice were treated for 14 consecutive days with either ABT-737 (75 mg/kg) or vehicle control. Spleen and lymph nodes were recovered and the numbers of […]), central memory ([…] effector memory (CD62LloCD44hi) cells determined by flow cytometry."}, "[1]": {"system": "cytotoxic T lymphocytes (CTL)", "assay": "In vivo CTL response after OVA priming", "parameters": "species or system C57BL/6 mice", "details": "75 mg/kg daily for a week, OVA priming on day 6, assay seven days after priming", "protocol": "Having established the impact of ABT-737 on the steady state immune system, its effects on the development of specific immune responses were next examined. C57BL/6 mice were treated daily for a week with either ABT-737 (75 mg/kg) or vehicle control and on treatment day 6, mice were primed with ovalbumin (OVA) antigen in the form of irradiated OVA-coated H-2Kb+ splenocytes (OCS), a protocol known to induce cytotoxic T lymphocytes (CTL). Seven days after T-cell priming, in vivo CTL responses were assayed by measuring the persistence in spleen and lymph nodes of OVA peptide pulsed target cells, CFSE labeled and injected intravenously."}, "[2]": {"system": "NP-specific B cell subsets (germinal center, memory and plasma cells)", "assay": "In vivo B cell response to NP-KLH immunization", "parameters": "species or system mice", "details": "for memory B cell compartment, established memory: treatment started at day 40 after immunization, 14 days, analyzed day 54; for frequency of ASC in the spleen or the bone marrow, established plasma cells: treatment starting day 40 after immunization", "protocol": "Mice were immunized with NP-KLH in alum by intraperitoneal injection and then treated with ABT-737 (75 mg/kg) or vehicle control for 14 consecutive days, starting 5 days after immunization. On day 19 after immunization, the numbers of NP-specific B cell subsets (germinal center (GC), memory and plasma cells) were quantified. As depicted in FIG. 5A, FIG. 5B, FIG. 5C, FIG. 5D, FIG. 5E, and FIG. 5F, antigen-specific B cells were detected by flow cytometry on the basis of surface staining for B220, NP and IgG1. […] To determine if memory cells were sensitive during formation or maintenance, mice were immunized and memory was allowed to form before ABT-737 treatment started at day 40 after immunization. The mice were analyzed after 14 days of treatment with ABT-737 or vehicle, i.e., day 54 after immunization. […] Antibody secreting cells (ASC) are also generated during the B cell response to antigen, secreting antibodies specific for the antigen. In the later stages of T cell dependent immune responses, ASC originate in the GC, then migrate to the bone marrow where they compete for access to survival niches in order to become long-lived plasma cells."}, "[3]": {"system": "islet allografts in spontaneously diabetic (RIP-Kb/CBA; H-2k) mice", "assay": "Allogenic islet graft rejection in diabetic mice", "type": "in vivo, mouse", "details": "50 mg/kg intra-peritoneal daily, 14 days; for islet allograft survival versus vehicle treated recipients: graft on day 6", "protocol": "Non-immune diabetic mice were treated daily for 14 consecutive days with either ABT-737 (50 mg/kg) or vehicle control. On treatment day 6, mice received an allogenic grant of F1(B6×SJL) islets transplanted under the kidney capsule. Blood glucose was measured at various times post-transplantation. Grafts were deemed successful if normal blood glucose (<15 mmol/L) levels were achieved within 4 days post-transplantation.\nViable islets were handpicked under dissecting microscope, pooled and cultured overnight at a density of 200-300 islets/3.5 cm Petri dish in 1.1 ml DME supplemented with 10% FCS at 37° C.; 10% CO2. The following day viable islets were handpicked into aliquots of 400 (of an equivalent size distribution) before grafting into recipient mice.\nSpontaneously diabetic (RIP-Kb/CBA; H-2^k) (Sutherland, R. M., Mountford, J. N., Allison, J., Harrison, L. C., & Lew, A. M., The non-immune RIP-Kb mouse is a useful host for islet transplantation, as the diabetes is spontaneous, mild and predictable. Int J Exp Diabetes Res, 2002, 3:37-45) male mice were treated daily for five consecutive days either with ABT-737 (50 mg/kg) or vehicle control via intra-peritoneal injection as described by Mason, K. D., Carpinelli, M. R., Fletcher, J. I., Collinge, J. E., Hilton, A. A., Ellis, S., Kelly, P. N., Ekert, P. G., Metcalf, D., Roberts, A. W., et al. Programmed anulear cell death delimits platelet life span. Cell (2007) 128:1173-1186. On day 6, mice received an allograft under the left kidney capsule consisting of 400 purified mouse pancreatic islets isolated from male and female donors [(C57Bl/6×SJL) F1; H-2^b,s]. Treatment was then continued daily for 8 days post transplantation. Graft function was monitored by diabetes reversal, determined by measuring blood glucose via tail vein bleed."}, "human pancreatic islets": {"system": "human pancreatic islets", "assay": "Predicted toxicity to pancreatic islets from Bcl-2 family expression profile", "details": "predicted from expression profile of Bcl-2 family proteins such as Mcl-1"}, "[4]": {"details": "75 mg/kg for 14 days starting 5 days after immunization, day 19"}, "[5]": {"details": "treatment starting on day 5 of the response"}},
  "note": "“Also recorded” adds a separate entry of the source.",
  "data": [
    {"smiles": "CN(C)CC[C@H](CSc1ccccc1)Nc1ccc(S(=O)(=O)NC(=O)c2ccc(N3CCN(Cc4ccccc4-c4ccc(Cl)cc4)CC3)cc2)cc1[N+](=O)[O-]", "note": "[EXAMPLE A, N-(4-(4-((4′-chloro(1,1′-biphenyl)-2-yl)methyl)piperazin-1-yl)benzoyl)-4-(((1R)-3-(dimethylamino)-1-((phenylsulfanyl)methyl)propyl)amino)-3-nitrobenzenesulfonamide]", "values": [
      {"measurement": "proliferation of activated T cells (3H-Thymidine incorporation)", "setting": "activated T cells", "result": "inhibits proliferation of activated T cells in a dose dependent manner"},
      {"measurement": "proliferation of activated murine B cells (3H-Thy)", "setting": "activated murine B cells", "result": "inhibits proliferation of activated murine B cells"},
      {"measurement": "central and effector memory CD4+ and effector CD8+ T cells in spleen", "setting": "naïve and memory T cells; 75 mg/kg, 14 consecutive days", "result": "remain refractory"},
      {"measurement": "numbers of naïve and memory T cells (CD4+ and CD8+) in lymph nodes", "setting": "naïve and memory T cells; 75 mg/kg, 14 consecutive days", "result": "significantly reduced"},
      {"measurement": "numbers of naïve cells and CD8+ central memory T cells in spleen", "setting": "naïve and memory T cells; 75 mg/kg, 14 consecutive days", "result": "effectively reduced"},
      {"measurement": "lymphocyte and dendritic cell sub-populations", "setting": "naïve and memory T cells; mouse immune system, summary statement", "result": "depleted selective lymphocyte and dendritic cell sub-populations"},
      {"measurement": "CTL activity", "setting": "[1]", "result": "significantly less CTL activity"},
      {"measurement": "reduction in specific target lysis compared to vehicle treated controls", "setting": "[1]", "result": "approximately 4 fold"},
      {"measurement": "GC (CD38lo) B cells", "setting": "[2]; [4]", "result": "unaffected"},
      {"measurement": "memory (CD38hi) B cells", "setting": "[2]; [4]", "result": "susceptive"},
      {"measurement": "overall number of antigen-specific B cells (B220, NP, IgG1)", "setting": "[2]; [4]", "result": "no significant difference"},
      {"measurement": "GC (CD38lo) B cells", "setting": "[2]; 75 mg/kg for 14 days starting 5 days after immunization, day 19, listed as ABT-737", "result": "refractory"},
      {"measurement": "memory B cell compartment, established memory", "setting": "[2]", "result": "inhibited the persistence of memory B cells"},
      {"measurement": "memory B cell compartment, established memory", "setting": "[2]; listed as ABT-737", "result": "still affected"},
      {"measurement": "frequency of ASC in the spleen or the bone marrow, established plasma cells", "setting": "[2]", "result": "unaffected"},
      {"measurement": "frequency of ASC in the spleen or the bone marrow, established plasma cells", "setting": "[2]; listed as ABT-737", "result": "no reduction"},
      {"measurement": "frequency of antigen-specific IgG1 ASC in the spleen", "setting": "[2]; [5]", "result": "significantly reduced"},
      {"measurement": "frequency of total and high affinity NP-specific ASC in the bone marrow", "setting": "[2]; [5]", "result": "marked reduction"},
      {"measurement": "islet allograft survival versus vehicle treated recipients", "setting": "[3]", "result": "sufficiently immunosuppressive to allow long-term survival of pancreatic allografts"},
      {"measurement": "islet allograft survival versus vehicle treated recipients", "setting": "[3]; listed as ABT-737", "result": "functioned significantly longer; also recorded: survived longer"},
      {"measurement": "duration of allograft function (all mice, n=5)", "setting": "[3]; experiment terminated at 100 days", "result": "≥ 100", "unit": "days post-transplantation"},
      {"measurement": "toxicity to human pancreatic islets", "setting": "human pancreatic islets", "result": "low toxicity"}
    ]}
  ]
}
